For assay [1], the target named is human CB1 receptors (Homo sapiens (Human), UniProt P21554). As to the kind of experiment: cAMP assay, CHO cells expressing human CB1 receptors. The class given is cell-based. To be noted: functional cAMP assay, CHO cells expressing human CB1; read-out: CB1 hcAMP EC50. How it is done: (§1) CHO cells expressing human CB1 or CB2 receptors are seeded 17-24 hours prior to the experiment 50.000 cells per well in a black 96 well plate with flat clear bottom (Corning Costar #3904) in DMEM (Invitrogen No. 31331), 1×HT supplement, with 10% fetal calf serum and incubated at 5% CO2 and 37° C. in a humidified incubator. The growth medium was exchanged with Krebs Ringer Bicarbonate buffer with 1 mM IBMX and incubated at 30° C. for 30 min. Compounds were added to a final assay volume of 100 μl and incubated for 30 min at 30° C. Using the cAMP-Nano-TRF detection kit the assay (Roche Diagnostics) was stopped by the addition of 50 μl lysis reagent (Tris, NaCl, 1.5% Triton X100, 2.5% NP40, 10% NaN3) and 50 μl detection solutions (20 μM mAb Alexa700-cAMP 1:1, and 48 μM Ruthenium-2-AHA-cAMP) and shaken for 2 h at room temperature. The time-resolved energy transfer is measured by a TRF reader (Evotec Technologies GmbH), equipped with a ND:YAG laser as excitation source. The plate is measured twice with the excitation at 355 nm and at the emission with a delay of 100 ns and a gate of 100 ns, total exposure time 10 s at 730 (bandwidth 30 nm) or 645 nm (bandwidth 75 nm), respectively. The FRET signal is calculated as follows: FRET=T730-Alexa730-P(T645-B645) with P=Ru730-B730/Ru645-B645, where T730 is the test well measured at 730 nM, T645 is the test well measured at 645 nm, B730 and B645 are the buffer controls at 730 nm and 645 nm, respectively. cAMP content is determined from the function of a standard curve spanning from 10 μM to 0.13 nM cAMP.
Chain of human CB1 receptors (P21554 whole entry): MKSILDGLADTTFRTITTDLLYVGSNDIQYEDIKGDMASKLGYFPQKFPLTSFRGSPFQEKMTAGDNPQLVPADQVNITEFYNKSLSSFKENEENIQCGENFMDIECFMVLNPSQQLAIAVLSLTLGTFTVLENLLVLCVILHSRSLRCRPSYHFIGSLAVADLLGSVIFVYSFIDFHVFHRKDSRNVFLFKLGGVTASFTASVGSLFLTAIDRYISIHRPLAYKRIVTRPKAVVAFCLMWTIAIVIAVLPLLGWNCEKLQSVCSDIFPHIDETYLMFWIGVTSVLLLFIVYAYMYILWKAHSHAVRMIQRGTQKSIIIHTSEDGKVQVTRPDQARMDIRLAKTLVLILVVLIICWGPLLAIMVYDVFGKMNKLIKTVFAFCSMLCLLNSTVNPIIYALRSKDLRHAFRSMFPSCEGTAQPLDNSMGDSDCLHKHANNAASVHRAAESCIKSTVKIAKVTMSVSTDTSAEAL
(§2) EC50 values were determined using Activity Base analysis (ID Business Solution, Limited). The EC50 values for a wide range of cannabinoid agonists generated from this assay were in agreement with the values published in the scientific literature.

The target of assay [2] is human CB2 receptors (Homo sapiens (Human), UniProt P34972). As to the kind of experiment: cAMP assay, CHO cells expressing human CB2 receptors. To be noted: functional cAMP assay, read-out: CB2 hcAMP EC50. The class given is cell-based. How it is done: as §1, §2
Chain of human CB2 receptors (P34972 whole entry): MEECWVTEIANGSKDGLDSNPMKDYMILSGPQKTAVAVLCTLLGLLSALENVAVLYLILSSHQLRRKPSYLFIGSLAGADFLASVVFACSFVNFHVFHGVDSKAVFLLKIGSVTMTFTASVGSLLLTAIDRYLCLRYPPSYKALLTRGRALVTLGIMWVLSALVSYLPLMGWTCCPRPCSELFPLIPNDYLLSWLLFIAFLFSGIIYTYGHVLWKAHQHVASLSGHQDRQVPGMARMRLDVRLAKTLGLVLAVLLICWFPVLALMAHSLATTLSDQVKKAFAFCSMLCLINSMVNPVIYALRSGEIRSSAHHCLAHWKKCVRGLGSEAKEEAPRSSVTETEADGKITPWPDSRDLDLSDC
(In general: Changes in cAMP serve as a functional read-out for many G protein-coupled receptors.)

With `CC(C)(C)c1nc(C2CCCC2)c2nnn(Cc3ccccc3Cl)c2n1` [Example 45a, 5-tert-Butyl-3-[(2-chlorophenyl)methyl]-7-cyclopentyl-triazolo[4,5-d]pyrimidine], the EC50 is more than 10 µM in assay [1] and 94.4 nM in assay [2].
Taken in the same sequence, the figures for `CC(C)(C)c1nc(C2(O)CCC2)c2nnn(Cc3ccccc3)c2n1` [Example 31, 1-(3-Benzyl-5-tert-butyltriazolo[4,5-d]pyrimidin-7-yl)cyclobutan-1-ol] were 0.645 µM and 4.5 nM.
On the same counts, the results for `Cc1nonc1Cn1nnc2c(-c3ccnn3C)nc(C(C)(C)C)nc21` [Example 14, 3-[[5-tert-butyl-7-(2-methylpyrazol-3-yl)triazolo[4,5-d]pyrimidin-3-yl]methyl]-4-methyl-1,2,5-oxadiazole] are more than 10 µM and 1.3 nM.
On the same counts, the results for `Cc1oncc1-c1nc(C(C)(C)C)nc2c1nnn2Cc1nnnn1C` [Example 27, 4-[5-tert-butyl-3-[(1-methyltetrazol-5-yl)methyl]triazolo[4,5-d]pyrimidin-7-yl]-5-methyl-1,2-oxazole] are more than 10 µM and 515 nM.
Consider `Cn1cc(-c2nc(C(C)(C)C)nc3c2nnn3Cc2nnnn2C)cn1` [Example 24, 5-tert-butyl-7-(1-methylpyrazol-4-yl)-3-[(1-methyltetrazol-5-yl)methyl]triazolo[4,5-d]pyrimidine], for which the EC50 was more than 10 µM in assay [1] and 156 nM in assay [2].
On the same counts, the results for `Cn1nccc1-c1nc(C(C)(C)C)nc2c1nnn2Cc1ccccc1S(C)(=O)=O` [Example 12, 5-tert-butyl-7-(2-methylpyrazol-3-yl)-3-[(2-methylsulfonylphenyl)methyl]triazolo[4,5-d]pyrimidine] are more than 10 µM and 3 nM.
On the same counts, the results for `Cn1nccc1-c1nc(C(C)(C)C)nc2c1nnn2CC(C)(C)O` [Example 22, 1-[5-tert-butyl-7-(2-methylpyrazol-3-yl)triazolo[4,5-d]pyrimidin-3-yl]-2-methylpropan-2-ol] are more than 10 µM and 206 nM.
On the same counts, the results for `Cn1nccc1-c1nc(C(C)(C)C)nc2c1nnn2C1COC1` [Example 19, 5-tert-butyl-7-(2-methylpyrazol-3-yl)-3-(oxetan-3-yl)triazolo[4,5-d]pyrimidine] are more than 10 µM and 190 nM.
`COc1ccc(-c2nc(C(C)(C)C)nc3c2nnn3Cc2ccccc2Cl)cc1` [Example 3, 5-tert-butyl-3-[(2-chlorophenyl)methyl]-7-(4-methoxyphenyl)triazolo[4,5-d]pyrimidine]: the figures for the EC50 in assay [1] and in assay [2] were more than 10 µM and 239 nM, respectively.
Taken in the same sequence, the figures for `CC(C)(C)c1nc2c(nnn2Cc2ccccc2Cl)c([C@]2(O)C[C@H](C(F)F)C2)n1` [Example 40, Trans-1-[5-tert-Butyl-3-[(2-chlorophenyl)methyl]triazolo[4,5-d]pyrimidin-7-yl]-3-(difluoromethyl)cyclobutanol] were 1.81 µM and 9.8 nM.
Regarding `Cn1nccc1-c1nc(C(C)(C)C)nc2c1nnn2Cc1nnnn1C` [Example 13, 5-tert-butyl-7-(2-methylpyrazol-3-yl)-3-[(1-methyltetrazol-5-yl)methyl]triazolo[4,5-d]pyrimidine], the half-maximal effective concentration (EC50) in assay [1] is more than 10 µM; in assay [2], 33.3 nM.
On the same counts, the results for `CC(C)(C)c1nc(C2(CF)CC2)c2nnn(Cc3ccccc3Cl)c2n1` [Example 43, 5-tert-Butyl-3-[(2-chlorophenyl)methyl]-7-[1-(fluoromethyl)cyclopropyl]triazolo[4,5-d]pyrimidine] are more than 10 µM and 903 nM.
Taken in the same sequence, the figures for `Cc1ccc(-c2nc(C(C)(C)C)nc3c2nnn3Cc2ccccc2Cl)cc1` [Example 1, 5-tert-butyl-3-[(2-chlorophenyl)methyl]-7-(4-methylphenyl)triazolo[4,5-d]pyrimidine] were more than 10 µM and 206 nM.
For the compound `CC(C)(C)c1nc(C2(O)C[S+]([O-])C2)c2nnn(Cc3ccccc3Cl)c2n1` (stereo not drawn) [Example 42, 3-[5-tert-Butyl-3-[(2-chlorophenyl)methyl]triazolo[4,5-d]pyrimidin-7-yl]-1-oxo-thietan-3-ol], the EC50 is more than 10 µM in assay [1] and 110 nM in assay [2].
On the same counts, the results for `CC(C)(C)c1nc(-c2ccc(F)nc2)c2nnn(Cc3ccccc3Cl)c2n1` [Example 6, 5-tert-butyl-3-[(2-chlorophenyl)methyl]-7-(6-fluoropyridin-3-yl)triazolo[4,5-d]pyrimidine] are more than 10 µM and 2.7 nM.

For orientation: EC50 means the concentration needed to bring the measured effect to its halfway point.

The values are drawn from patent publication US10183946B2, “Triazolo[4,5-D]pyrimidines” (Hoffmann—La Roche Inc., priority 2014, dated 2019).
